Laboratory results: patent US9364450B2, “Clenbuterol for use in treatment of autism” (STOW[…]. CELESTYNA, priority 2011, dated 2016)

Experiment: Administration of clenbuterol to patients with autistic symptoms (case examples)
Format: in vivo, autistic children
Procedure: A patient with autistic symptoms in the form of disorders of social integration, verbal and non-verbal communication, play disorders and concomitant anxiety, especially when changing environment, was administered clenbuterol at a dose of ¼ tablet containing 20 μg of clenbuterol once daily for a period of 3 months.
A patient with pediatric autism and cerebral palsy was administered the medication at a dose of ¼ of 20 μg tablet twice daily for a period of 12 months.
A patient with early pediatric autism, psychomotor hyperactivity syndrome and speech development delay was administered clenbuterol at a dose of ¼ of 20 μg tablet once daily for a period of 12 months.
It has been assumed that clenbuterol, modulating the brain neurotransmitter systems, affects also the endocrine and immunological system. As a result, alleviation of communication disorders and improved contact with surroundings is observed in autistic children.

Q: With `CC(C)(C)NCC(O)c1cc(Cl)c(N)c(Cl)c1` (racemic) [clenbuterol, (RS)-1-(4-amino-3,5-dichlorophenyl)-2-(tert-butylamino)ethanol] as the compound, how does the “Overall effects observed in autistic children” value (administration at very small doses to autistic children) read?
A: Improved contact with surroundings, better concentration, improved ability to plan a specific task, improved understanding, calming, and reduced psychomotor anxiety were observed

Q: And the “Effect on functional disorders related to ASD” value (administration of effective amounts of clenbuterol or its pharmaceutically effective salt)?
A: seems to practically alleviate functional disorders related to ASD

Q: And the Adverse effects (long-term administration of clenbuterol or its pharmaceutically acceptable salt)?
A: no adverse effects associated with medications previously used in treatment of autism were observed

Q: And the “Change in autistic symptoms after therapy (interest in environment, contact with surroundings, anxiety)” value (patient with autistic symptoms, 1/4 tablet containing 20 μg once daily for 3 months)?
A: increased interest in the environment was observed; the child's contact with surroundings improved and its anxiety symptoms decreased

Q: And the “Change in autistic symptoms after treatment (speech expression, psychomotor anxiety, grimacing)” value (patient with early pediatric autism, psychomotor hyperactivity syndrome and speech development delay, 1/4 of 20 μg tablet once daily for 12 months)?
A: Improvement in speech expression was achieved as well as reduction of psychomotor anxiety and grimacing

Q: What about the “Change in autistic symptoms after treatment (understanding, concentration, attention, speech)” value (patient with pediatric autism and cerebral palsy, 1/4 of 20 μg tablet twice daily for 12 months) of the same compound?
A: improvement with respect to understanding, concentration, attention, and speech
